The values that follow are results of earlier work, collected in patent US20080038403A1, “WEIGHT MANAGEMENT SYSTEM FOR OBESE ANIMALS” (MARS INCORPORATED, priority 2002, published 2008).

The conditions of series [1]: dietary consumption.
The conditions of series [2]: dietary consumption. This is another data set of the same source.

Take 1,3-diacylglycerol: in series [1], the serum cholesterol levels result is listed as “lowers” and the serum triglyceride levels entry is “lowers”. Moreover, in series [2], the body weight result is recorded as “decreases” and the regional fat deposition entry is recorded as “decreases”.
